{"source": "patent US9951226B2", "about": "“Compound based on cyanine scaffold for diagnosis sepsis by selectively detect glutathione” (EWHA UNIVERSITY—INDUSTRY COLLABORATION FOUNDATION, priority 2014, dated 2018)", "key": {"HeLa cells [1]": {"tested_on": "HeLa cells", "assay": "Detection of intracellular biothiol in HeLa cells, confocal laser scanning microscope", "type": "cell-based, human", "conditions": "10 μM compound", "experimental": "HeLa cells (human adenocarcinoma cells, Korea Cell Line Bank) were cultured in RPMI 1640 (Roswell Park Memorial Institute) supplemented with 10% heat-inactivated fetal bovine serum (FBS), 100 U/mL penicillin, and 100 U/mL streptomycin in a 37° C. 5% CO2 incubator. The cells were either treated or not treated with 1 mM of N-methylmaleimide (NMM) known as a thiol blocker for 20 minutes. 100 μM of each amino acid containing thiol group (R—SH) such as cysteine, homocysteine, and glutathione was added thereto. Then, the cells were seeded in 35-mm glass bottomed dishes at the density of 3×10^5 cells/dish in 1640 medium. 24 hours later, 10 μM of the compound prepared in Example 1 was added thereto, followed by culture at 37° C. for 20 minutes. The cells were washed with DPBS (Dulbecco's Phosphate Buffered Saline) twice to eliminate the remaining compound, followed by imaging with confocal laser scanning microscope (Fluoview 1200, Olympus, Japan). At this time, the emitting filter with the excitation wavelength of 635 nm and the band-path (BP) of 655˜755 nm was used."}, "C57BL/6 mouse": {"tested_on": "C57BL/6 mouse", "assay": "Detection of glutathione in a mouse model with N-methylmaleimide (NMM), IVIS imaging", "type": "in vivo", "experimental": "200 μL of HEPES (4-(2-hydroxyethyl)piperazine-1-ethanesulfonic acid) buffer (10 mM, pH=7.4) containing 20 mM of N-methylmaleimide (NMM) known as a thiol blocker was administered to each C57BL/6 mouse (7˜8 weeks old, female, Jackson Laboratory) via intravenous injection. 20 minutes later, 200 μL of HEPES (4-(2-hydroxyethyl)piperazine-1-ethanesulfonic acid) buffer (10 mM, pH=7.4) containing 50 mM of the compound prepared in Example 2 was administered to the mouse via intravenous injection. 20 minutes later, the strength of fluorescence was observed by using the epifluorescence mode of In Vivo Imaging System (IVIS) spectrum (Caliper LifeSciences, USA) equipped with the filter having the wavelengths of 675 nm and 720 nm [the strength of fluorescence was measured by Living Image Software 4.3.1 (Caliper Life Sciences, USA)]."}, "HeLa cells [2]": {"tested_on": "HeLa cells", "assay": "Changes of glutathione concentration in the presence of an oxidant (H2O2), HeLa cells", "type": "cell-based, human", "experimental": "100 μM of H2O2, the oxidant, was treated to HeLa cells prepared in Experimental Example 2 containing glutathione, the anti-oxidant, at 37° C. for 30 minutes to induce the changes of glutathione level. 20 μM of the compound prepared in Example 2 was added thereto, followed by culture at 37° C. for 20 minutes. The cells were washed with DPBS (Dulbecco's Phosphate Buffered Saline) three times to eliminate the remaining compound, followed by imaging with confocal laser scanning microscope (Fluoview 1200, Olympus, Japan). At this time, the emitting filter with the excitation wavelength of 635 nm and the band-path (BP) of 655˜755 nm was used."}, "[3]": {"assay": "Absorption and fluorescence spectrum according to the concentration of glutathione", "type": "biochemical", "experimental": "10 μM of the compound prepared in Example 2 and glutathione were added to HEPES (4-(2-hydroxyethyl)piperazine-1-ethanesulfonic acid) buffer (10 mM, pH=7.4) containing 10% dimethylsulfoxide (DMSO) with raising slowly the concentration of glutathione from 0 to 50 μM, during which the changes of absorption spectrum were observed using UV-vis sepctra (Scinco 3000 spectrophotometer, 1 cm quartz cell) at 25° C.\nThe following experiment was performed by the same manner as described in Experimental Example <4-1> except that fluorescence spectrum was observed by using RF-5310/PC fluorescence spectrometer (Shimada, 1 cm quartz cell) instead of observing absorption spectrum via UV-vis sepctra (Scinco 3000 spectrophotometer, 1 cm quartz cell) (λex=730 nm, λem=736 nm, slit:10/10 nm).\n10 μM of the compound prepared in Example 3 and glutathione were added to HEPES (4-(2-hydroxyethyl)piperazine-1-ethanesulfonic acid) buffer (10 mM, pH=7.4) containing 10% dimethylsulfoxide (DMSO) with raising slowly the concentration of glutathione from 0 to 100 μM, during which the changes of absorption spectrum were observed using UV-vis sepctra (Scinco 3000 spectrophotometer, 1 cm quartz cell) at 25° C.\nThe following experiment was performed by the same manner as described in Experimental Example <16-1> except that fluorescence spectrum was observed by using RF-5310/PC fluorescence spectrometer (Shimada, 1 cm quartz cell) instead of observing absorption spectrum via UV-vis sepctra (Scinco 3000 spectrophotometer, 1 cm quartz cell) (λex=730 nm, λem=736 nm, slit:10/10 nm)."}, "[4]": {"assay": "Absorption and fluorescence spectrum over the time after reaction with glutathione", "type": "biochemical", "conditions": "10 μM compound, 100 μM glutathione, HEPES pH 7.4, 10% DMSO", "experimental": "10 μM of the compound prepared in Example 2 and 100 μM of glutathione were added to HEPES (4-(2-hydroxyethyl)piperazine-1-ethanesulfonic acid) buffer (10 mM, pH=7.4) containing 10% dimethylsulfoxide (DMSO), followed by observation of absorption spectrum at 25° C. using UV-vis sepctra (Scinco 3000 spectrophotometer, 1 cm quartz cell) over the time. The results are shown in FIG. 8 (spectrum was photographed every 0.5 minute).\nThe following experiment was performed by the same manner as described in Experimental Example <5-1> except that fluorescence spectrum was observed by using RF-5310/PC fluorescence spectrometer (Shimada, 1 cm quartz cell) instead of observing absorption spectrum via UV-vis sepctra (Scinco 3000 spectrophotometer, 1 cm quartz cell) (λex=730 nm, λem=736 nm, slit:10/10 nm). The results are shown in FIG. 9 (spectrum was photographed every 0.5 minute)."}, "[5]": {"conditions": "mouse treated with NMM together with the compound"}, "[6]": {"conditions": "10 μM compound, glutathione not added"}, "[7]": {"conditions": "10 μM compound, glutathione raised from 0 to 50 μM"}}}
{"smiles": "CCCN1/C(=C/C=C2\\CCCC(/C=C/C3=[N+](CCC)c4ccccc4C3(C)C)=C2N2CCN(S(=O)(=O)c3cccc4c(N(C)C)cccc34)CC2)C(C)(C)c2ccccc21.[I-]", "note": "[Example 2, 2-((E)-2-((E)-3-((E)-2-(3,3-dimethyl-1-propylindolin-2-ylidene)ethylidene)-2-(4-(5-(dimethylamino)naphthalene-1-ylsulfonyl)piperazine-1-yl)cyclohex-1-enyl)binyl)-3,3-dimethyl-1-propyl-3H-indolium iodide]", "values": [{"measurement": "red fluorescence under confocal laser scanning microscope", "setting": "HeLa cells [1]; HeLa cells pre-treated with NMM, 100 μM cysteine added", "result": "red fluorescence was not detected"}, {"measurement": "red fluorescence under confocal laser scanning microscope", "setting": "HeLa cells [1]; HeLa cells pre-treated with NMM, 100 μM glutathione added", "result": "strong red fluorescence was observed"}, {"measurement": "red fluorescence under confocal laser scanning microscope", "setting": "HeLa cells [1]; HeLa cells pre-treated with NMM, 100 μM homocysteine added", "result": "red fluorescence was not detected"}, {"measurement": "red fluorescence under confocal laser scanning microscope", "setting": "HeLa cells [1]; HeLa cells pre-treated with thiol blocker NMM 1 mM", "result": "red fluorescence was not observed"}, {"measurement": "red fluorescence under confocal laser scanning microscope", "setting": "HeLa cells [1]; HeLa cells, 20 minutes", "result": "strong red fluorescence was observed"}, {"measurement": "red fluorescence in liver, kidney, lung, and spleen, IVIS spectrum", "setting": "C57BL/6 mouse; [5]", "result": "red fluorescence was not observed"}, {"measurement": "red fluorescence of the mouse, IVIS spectrum", "setting": "C57BL/6 mouse; [5]", "result": "red fluorescence was not observed"}, {"measurement": "red fluorescence in liver, kidney, lung, and spleen, IVIS spectrum", "setting": "C57BL/6 mouse; mouse treated with the compound alone", "result": "strong red fluorescence was observed"}, {"measurement": "red fluorescence of the mouse, IVIS spectrum", "setting": "C57BL/6 mouse; mouse treated with the compound alone, intravenous injection, 20 minutes", "result": "strong red fluorescence was observed"}, {"measurement": "red fluorescence under confocal laser scanning microscope", "setting": "HeLa cells [2]; HeLa cells pre-treated with 100 μM H2O2, 20 μM compound", "result": "red fluorescence was not observed"}, {"measurement": "red fluorescence under confocal laser scanning microscope", "setting": "HeLa cells [2]; HeLa cells, 20 μM compound, 20 minutes", "result": "strong red fluorescence"}, {"measurement": "reaction to oxidized glutathione, glutathione disulfide (GSSG)", "setting": "HeLa cells [2]; HeLa cells, H2O2", "result": "did not react"}, {"measurement": "absorption strength at 750 nm", "setting": "[3]; [6]", "result": "weak absorption strength"}, {"measurement": "fluorescence signal at 736 nm", "setting": "[3]; [6]", "result": "weak fluorescence signal"}, {"measurement": "absorption signal at 750 nm", "setting": "[3]; [7]", "result": "getting stronger"}, {"measurement": "fluorescence signal at 736 nm", "setting": "[3]; [7]", "result": "getting stronger"}, {"measurement": "dependence of the reaction on glutathione concentration", "setting": "[3]; conclusion from absorption and fluorescence spectra", "result": "glutathione dose-dependent"}, {"measurement": "time to maximum fluorescence signal at 736 nm", "setting": "[4]", "result": "≤ 15", "unit": "min"}, {"measurement": "time to minimum absorption signal at 750 nm", "setting": "[4]; 25° C.", "result": "≤ 15", "unit": "min"}]}
